Data taken from ChEMBL document CHEMBL1201862, “PubChem BioAssay data set” (2004).
Counter-ions that a name gives are not always drawn.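 Grown in 96-well plates, cells were treated for 48 hours with each compound at five concentrations. Insufficient inhibition: endpoint recorded as highest concentration tested. GI50 = concentration required for 50% inhibition of growth.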 Activity calls are given as the source filed them. Rule as the data show it: active = GI50 up to about 1.1 µM and inactive = higher.

What was measured:
Test in all cases: NCI anticancer screen, dose series, 48 h
CCRF-CEM = test system: CCRF-CEM
EKVX = test system: EKVX
HCT-116 = test system: HCT-116
IGROV-1 = test system: IGROV-1
KM12 = test system: KM12
LOX IMVI = test system: LOX IMVI
NCI-H226 = test system: NCI-H226
NCI-H23 = test system: NCI-H23
NCI-H460 = test system: NCI-H460
NCI-H522 = test system: NCI-H522
OVCAR-4 = test system: OVCAR-4
OVCAR-5 = test system: OVCAR-5
SF-295 = test system: SF-295
SK-MEL-28 = test system: SK-MEL-28
SK-OV-3 = test system: SK-OV-3
SR = test system: SR
TK-10 = test system: TK-10
UACC-257 = test system: UACC-257
UACC-62 = test system: UACC-62

`CCN1CCC(O)(c2ccccc2)C(C(=O)c2ccccc2)C1` (stereo not drawn) was tested, and the GI50 (CCRF-CEM) was 15.7 µM (inactive), the GI50 (EKVX) was > 49.2 µM (inactive) and the GI50 (HCT-116) was 17.1 µM (inactive). For the same molecule, the GI50 (IGROV-1) was > 100 µM (inactive), the GI50 (KM12) was 45.4 µM (inactive) and the GI50 (LOX IMVI) was 17.4 µM (inactive). For the same molecule, the GI50 (NCI-H226) was > 54.1 µM (inactive), the GI50 (NCI-H23) was > 53 µM (inactive) and the GI50 (NCI-H460) was > 100 µM (inactive). For the same molecule, the GI50 (NCI-H522) was 2.62 µM (inactive), the GI50 (OVCAR-4) was 18.2 µM (inactive) and the GI50 (OVCAR-5) was 18.2 µM (inactive). For the same molecule, the GI50 (SF-295) was > 65.6 µM (inactive), the GI50 (SK-MEL-28) was 17.9 µM (inactive) and the GI50 (SK-OV-3) was > 100 µM (inactive). The GI50 (SR) was 20.8 µM (inactive), the GI50 (TK-10) was 23.2 µM (inactive) and the GI50 (UACC-257) was 19.6 µM (inactive). For the same molecule, the GI50 (UACC-62) was > 45.3 µM (inactive).

With `Clc1ccc2c(SCC3CO3)c3ccccc3nc2c1` (stereo not drawn) the GI50 (CCRF-CEM) was 2.43 µM (inactive), the GI50 (EKVX) was 4.9 µM (inactive) and the GI50 (HCT-116) was 1.66 µM (inactive). For the same molecule, the GI50 (IGROV-1) was 1.33 µM (inactive), the GI50 (KM12) was 1.7 µM (inactive) and the GI50 (LOX IMVI) was 2.25 µM (inactive). For the same molecule, the GI50 (NCI-H226) was 22.9 µM (inactive), the GI50 (NCI-H23) was 3.54 µM (inactive) and the GI50 (NCI-H460) was 4.27 µM (inactive). The GI50 (NCI-H522) was 2.08 µM (inactive), the GI50 (OVCAR-4) was 3.87 µM (inactive) and the GI50 (OVCAR-5) was 4.36 µM (inactive). The GI50 (SF-295) was 16.5 µM (inactive), the GI50 (SK-MEL-28) was 2.88 µM (inactive) and the GI50 (SK-OV-3) was 21.1 µM (inactive). The GI50 (SR) was 2.04 µM (inactive), the GI50 (TK-10) was 1.74 µM (inactive) and the GI50 (UACC-257) was 2.49 µM (inactive). For the same molecule, the GI50 (UACC-62) was 3.61 µM (inactive).

In the case of `CC(=O)OCc1ccc2c(c1)C(O)NC(=O)O2` (stereo not drawn), the GI50 (CCRF-CEM) is reported as 12.4 µM (inactive), the GI50 (EKVX) is reported as > 100 µM (inactive) and the GI50 (HCT-116) is reported as 52.8 µM (inactive). The GI50 (IGROV-1) was > 100 µM (inactive), the GI50 (KM12) was 88.5 µM (inactive) and the GI50 (LOX IMVI) was 47.2 µM (inactive). The GI50 (NCI-H226) was 96.6 µM (inactive), the GI50 (NCI-H23) was > 100 µM (inactive) and the GI50 (NCI-H460) was > 100 µM (inactive). For the same molecule, the GI50 (NCI-H522) was 68.7 µM (inactive), the GI50 (OVCAR-4) was 93.1 µM (inactive) and the GI50 (OVCAR-5) was > 100 µM (inactive). The GI50 (SF-295) was > 100 µM (inactive), the GI50 (SK-MEL-28) was > 100 µM (inactive) and the GI50 (SK-OV-3) was > 100 µM (inactive). For the same molecule, the GI50 (SR) was 10.4 µM (inactive), the GI50 (TK-10) was > 100 µM (inactive) and the GI50 (UACC-257) was > 100 µM (inactive). For the same molecule, the GI50 (UACC-62) was > 100 µM (inactive).

With `[O-][S+](Cc1ccccc1)c1ccccc1Cn1cccc1` (stereo not drawn) the GI50 (CCRF-CEM) was > 100 µM (inactive), the GI50 (EKVX) was > 100 µM (inactive) and the GI50 (HCT-116) was > 100 µM (inactive). The GI50 (IGROV-1) was > 100 µM (inactive), the GI50 (KM12) was > 100 µM (inactive) and the GI50 (LOX IMVI) was > 100 µM (inactive). The GI50 (NCI-H23) was > 100 µM (inactive), the GI50 (NCI-H460) was > 100 µM (inactive) and the GI50 (OVCAR-4) was 41.9 µM (inactive). For the same molecule, the GI50 (OVCAR-5) was > 100 µM (inactive), the GI50 (SF-295) was 60.4 µM (inactive) and the GI50 (SK-MEL-28) was > 100 µM (inactive). The GI50 (SK-OV-3) was > 100 µM (inactive), the GI50 (SR) was 23 µM (inactive) and the GI50 (TK-10) was > 100 µM (inactive). The GI50 (UACC-257) was > 100 µM (inactive) and the GI50 (UACC-62) was 71.6 µM (inactive).

In the case of `Cc1cc2c(=O)c(C)n[nH]c2c(C#N)c1C`, the GI50 (CCRF-CEM) is reported as > 100 µM (inactive), the GI50 (EKVX) is reported as > 100 µM (inactive) and the GI50 (HCT-116) is reported as > 100 µM (inactive). The GI50 (IGROV-1) was > 100 µM (inactive), the GI50 (LOX IMVI) was > 100 µM (inactive) and the GI50 (NCI-H226) was > 100 µM (inactive). For the same molecule, the GI50 (NCI-H23) was > 100 µM (inactive), the GI50 (NCI-H460) was > 100 µM (inactive) and the GI50 (OVCAR-5) was > 100 µM (inactive). The GI50 (SF-295) was > 100 µM (inactive), the GI50 (SK-MEL-28) was > 100 µM (inactive) and the GI50 (SK-OV-3) was > 100 µM (inactive). The GI50 (SR) was > 100 µM (inactive), the GI50 (TK-10) was > 100 µM (inactive) and the GI50 (UACC-257) was > 100 µM (inactive). The GI50 (UACC-62) was > 100 µM (inactive).

`C[C@H]1C[C@@H]2[C@H]([C@@H](O)C[C@@]3(C)[C@H]2CC[C@]3(O)C(=O)CO)[C@@]2(C)C=CC(=O)C=C12` [METHYLPREDNISOLONE] was tested, and the GI50 (CCRF-CEM) was 0.0429 µM (active), the GI50 (HCT-116) was > 100 µM (inactive) and the GI50 (IGROV-1) was > 100 µM (inactive). The GI50 (KM12) was > 100 µM (inactive), the GI50 (LOX IMVI) was > 100 µM (inactive) and the GI50 (NCI-H226) was > 100 µM (inactive). For the same molecule, the GI50 (NCI-H23) was > 100 µM (inactive), the GI50 (NCI-H460) was > 100 µM (inactive) and the GI50 (NCI-H522) was > 100 µM (inactive). For the same molecule, the GI50 (OVCAR-4) was > 100 µM (inactive), the GI50 (OVCAR-5) was > 100 µM (inactive) and the GI50 (SK-MEL-28) was > 100 µM (inactive). The GI50 (SK-OV-3) was > 100 µM (inactive), the GI50 (SR) was > 100 µM (inactive) and the GI50 (TK-10) was > 100 µM (inactive). The GI50 (UACC-257) was > 100 µM (inactive) and the GI50 (UACC-62) was > 100 µM (inactive).

With `O=C1OC(c2ccccc2)=N/C1=C/N1CCCC1C(=O)O` (stereo not drawn) the GI50 (CCRF-CEM) was > 100 µM (inactive), the GI50 (EKVX) was > 100 µM (inactive) and the GI50 (HCT-116) was > 100 µM (inactive). The GI50 (IGROV-1) was > 100 µM (inactive), the GI50 (KM12) was > 100 µM (inactive) and the GI50 (LOX IMVI) was > 100 µM (inactive). For the same molecule, the GI50 (NCI-H226) was > 100 µM (inactive), the GI50 (NCI-H23) was > 100 µM (inactive) and the GI50 (NCI-H460) was > 100 µM (inactive). For the same molecule, the GI50 (NCI-H522) was > 100 µM (inactive), the GI50 (OVCAR-4) was > 100 µM (inactive) and the GI50 (OVCAR-5) was > 100 µM (inactive). For the same molecule, the GI50 (SF-295) was > 100 µM (inactive), the GI50 (SK-MEL-28) was > 100 µM (inactive) and the GI50 (SK-OV-3) was > 100 µM (inactive). The GI50 (TK-10) was > 100 µM (inactive), the GI50 (UACC-257) was > 100 µM (inactive) and the GI50 (UACC-62) was > 100 µM (inactive).

`CNC(C)Cc1ccccc1OC` (stereo not drawn) [METHOXYPHENAMINE HYDROCHLORIDE] was tested, and the GI50 (CCRF-CEM) was > 100 µM (inactive), the GI50 (EKVX) was > 100 µM (inactive) and the GI50 (HCT-116) was > 100 µM (inactive). For the same molecule, the GI50 (IGROV-1) was > 100 µM (inactive), the GI50 (KM12) was > 100 µM (inactive) and the GI50 (LOX IMVI) was > 100 µM (inactive). For the same molecule, the GI50 (NCI-H226) was > 100 µM (inactive), the GI50 (NCI-H23) was > 100 µM (inactive) and the GI50 (NCI-H460) was > 100 µM (inactive). For the same molecule, the GI50 (NCI-H522) was > 100 µM (inactive), the GI50 (OVCAR-4) was > 100 µM (inactive) and the GI50 (OVCAR-5) was > 100 µM (inactive). The GI50 (SF-295) was > 100 µM (inactive), the GI50 (SK-MEL-28) was > 100 µM (inactive) and the GI50 (SK-OV-3) was > 100 µM (inactive). For the same molecule, the GI50 (TK-10) was > 100 µM (inactive), the GI50 (UACC-257) was > 100 µM (inactive) and the GI50 (UACC-62) was > 100 µM (inactive).
